In the NIST ThermoML archive (doi:10.1016/j.jct.2017.08.004):

Assay: molar heat capacity at constant pressure
Conditions: 101.33 kPa, Crystal

O[C@H]1[C@H](O)[C@@H](O)[C@H](O)[C@@H](O)[C@H]1O [cis-1,2,3,5-trans-4,6-cyclohexanehexol]
molar heat capacity at constant pressure [J/K/mol]
Conditions | Small sample (50 mg) DSC | relaxation calorimetry
218.15 K | 157.24 | –
219.15 K | 158 | –
220 K | – | 160.15
220.15 K | 158.66 | –
221.15 K | 159.51 | –
221.79 K | – | 161.31
222.15 K | 160.36 | –
223.15 K | 161.11 | –
224.15 K | 161.84 | –
225.15 K | 162.58 | –
226.15 K | 163.3 | –
227.15 K | 164.03 | –
228.15 K | 164.76 | –
229.15 K | 165.48 | –
230 K | – | 167.37
230.15 K | 166.09 | –
231.15 K | 166.87 | –
231.88 K | – | 168.69
232.15 K | 167.66 | –
233.15 K | 168.47 | –
234.15 K | 169.23 | –
235.15 K | 169.98 | –
236.15 K | 170.76 | –
237.15 K | 171.54 | –
238.15 K | 172.36 | –
239.15 K | 173.06 | –
240 K | – | 174.63
240.15 K | 173.81 | –
241.15 K | 174.61 | –
241.96 K | – | 176.25
242.15 K | 175.4 | –
243.15 K | 176.08 | –
244.15 K | 176.84 | –
245.15 K | 177.49 | –
246.15 K | 178.19 | –
247.15 K | 178.89 | –
248.15 K | 179.65 | –
249.15 K | 180.32 | –
250 K | – | 181.94
250.15 K | 181.03 | –
251.15 K | 181.9 | –
251.99 K | – | 183.44
252.15 K | 182.55 | –
253.15 K | 183.36 | –
254.15 K | 184.08 | –
255.15 K | 184.96 | –
256.15 K | 185.78 | –
257.15 K | 186.45 | –
258.15 K | 187.25 | –
259.15 K | 188.05 | –
260 K | – | 189.3
260.15 K | 188.81 | –
261.15 K | 189.58 | –
262.11 K | – | 191.23
262.15 K | 190.24 | –
263.15 K | 191.02 | –
264.15 K | 191.84 | –
265.15 K | 192.51 | –
266.15 K | 193.18 | –
267.15 K | 194.11 | –
268.15 K | 194.88 | –
269.15 K | 195.58 | –
270 K | – | 196.73
270.15 K | 196.44 | –
271.15 K | 197.16 | –
272.15 K | 197.91 | –
272.17 K | – | 198.87
273.15 K | 198.7 | 199.08
274.15 K | 199.42 | –
275.15 K | 200.19 | –
276.15 K | 201.09 | –
277.15 K | 201.63 | –
278.15 K | 202.4 | –
279.15 K | 203.19 | –
280 K | – | 204.22
280.15 K | 203.91 | –
281.15 K | 204.75 | –
282.15 K | 205.45 | –
282.18 K | – | 206.06
283.15 K | 206.13 | –
284.15 K | 206.78 | –
285.15 K | 207.67 | –
286.15 K | 208.29 | –
287.15 K | 208.96 | –
288.15 K | 209.73 | –
289.15 K | 210.44 | –
290 K | – | 211.78
290.15 K | 211.29 | –
291.15 K | 212.09 | –
292.15 K | 212.8 | –
292.29 K | – | 213.34
293.15 K | 213.54 | –
294.15 K | 214.44 | –
295.15 K | 215.31 | –
296.15 K | 216.01 | –
297.15 K | 216.77 | –
298.15 K | 217.6 | 218
299.15 K | 218.39 | –
300 K | – | 219.42
300.15 K | 219.12 | –
301.15 K | 219.99 | –
302.15 K | 220.81 | –
302.4 K | – | 220.86
303.15 K | 221.72 | –
304.15 K | 222.56 | –
305 K | 223.54 | –
305.15 K | 223.48 | –
306.15 K | 224.53 | –
307.15 K | 225.41 | –
308.15 K | 226.47 | –
309.15 K | 227.45 | –
310 K | 228.25 | –
310.15 K | 228.42 | –
311.15 K | 229.32 | –
312.15 K | 230.3 | –
313.15 K | 231.18 | –
314.15 K | 232.03 | –
315 K | 232.85 | –
